Experimental data from US20070021380A1, “Novel drug delivery compositions” (priority 2005, published 2007).
Converted amounts (≈) assume the structure as drawn.

Test system: HBV
Assay: Anti-viral activity: viral DNA by Q-PCR in tetracycline-responsive HepAD38 cells
Format: cell-based
Details: for EC50: HepAD38 cells, viral DNA at day 4 post-induction, Q-PCR; for Improvement Compared to araA: therapeutic effect relative to araA (=1.00)
Procedure: Tetracycline-responsive cell lines HepAD38 were used (Ladner et al., 1997), hepatoma cells that have been stably transfected with a cDNA copy of the pregenomic RNA of wild-type virus. Withdrawal of tetracycline from the culture medium results in the initiation of viral replication. Cells were cultured at 37° C. in a humidified 5% CO2/air atmosphere in seeding medium, DMEM/Ham's F12 (50/50) supplemented with 10% (v/v) heat-inactivated fetal calf serum, 100 IU/ml penicillin/50 μg/ml streptomycin mix, 400 μg/ml G418, and 0.3 μg/ml tetracycline.
Upon assay initiation, the cells were seeded in 48-well plates at a density of 1.5×10^5/well. After 2-3 days the cultures were induced for viral production by washing with prewarmed PBS and were fed with 200 μl assay medium (seeding medium without tetracycline and G418) with or without the antiviral compounds. Medium was changed after 3 days. The antiviral effect was quantified by measuring levels of viral DNA [isolated (Qiagen) from the cell cultures] at day 4 post-induction, by a real time quantitative PCR (Q-PCR) and analyzed using a SDS 7000 (Applied Biosystems, Foster City, Calif.).
A plasmid containing the full length insert of the HBV genome was used to prepare the standard curve. The amount of viral DNA produced in treated cultures was expressed as a percentage of the mock treated samples. The cytostatic effect of the various compounds was assessed employing the parent hepatoma cell line HepG2. The effect of the compounds on exponentially growing HepG2 cells was evaluated by means of the MTS method (Promega). Briefly, cells were seeded at a density of 3000/well (96 well plate) and were allowed to proliferate for 3 days in the absence or presence of compounds after which time cell density was determined.

| SMILES | EC50 [µg/mL] | Improvement Compared to araA |
| --- | --- | --- |
| Nc1ncnc2c1ncn2[C@@H]1O[C@H](COP(=O)(O)O)[C@@H](O)[C@@H]1O [araAMP, araA-monophosphate] | 33 (≈ 95 µM) | 1.35 |
| Nc1ncnc2c1ncn2[C@@H]1O[C@H](CO)[C@@H](O)[C@@H]1O [araA] | 35 (≈ 131 µM) | 1.00 |
